Source: EPA's ToxValDB 9.5 (doi:10.2903/j.efsa.2010.1904)
≈ marks a conversion by molar mass, not a printed value.

Tests used:
Canidae = conditions: chronic; duration: 52 weeks; oral; Dog Other
Oncorhynchus mykiss = conditions: chronic/long-term; duration: 21 days
Anas platyrhynchos = conditions: oral, mortality
Ictalurus punctatus = conditions: acute; duration: 96 hours; mortality
Apis mellifera = conditions: acute; duration: 48 hours; oral; unspecified; mortality
Oryctolagus sp. = conditions: reproduction developmental; reproduction
Daphnia magna = conditions: chronic/long-term; duration: 21 days

N#Cc1sc2c(=O)c3ccccc3c(=O)c=2sc1C#N [Dithianon]
LC50 (Tagia sp.; acute, duration: 14 days, mortality): 578 mg/kg
NOEC (Tagia sp.; chronic/long-term, duration: 56 days, reproduction): 48 mg/kg
NOAEL (Canidae): 1.6 mg/kg-day
NOEC (Oncorhynchus mykiss): 0.00046 mg/L
LD50 (Anas platyrhynchos; acute, unspecified): > 2000 mg/kg-day
LC50 (Anas platyrhynchos; short-term, feed): > 790 mg/kg-day
LC50 (Ictalurus punctatus): 0.0143 µg/mL (≈ 0.0483 µM)
LC50 (Colinus virginianus; acute, oral, diet, mortality): > 1200 mg/kg-day
LD50 (Colinus virginianus; acute, oral, mortality): 309 mg/kg-day
NOEC (Colinus virginianus; reproduction developmental, reproduction): 22.8 mg/kg-day
LD50 (Apis mellifera): > 25.4 µg/piece
NOAEL (Oryctolagus sp.): 25 mg/kg-day
LD50 (Rattus norvegicus; acute, oral, mortality): < 500 mg/kg-day
NOAEL (Rattus norvegicus; chronic, histopathology: neoplastic): 1 mg/kg-day
NOAEL (Rattus norvegicus; short-term, duration: 7 days, oral, histopathology: nonneoplastic): 12 mg/kg-day
NOAEL (Rattus norvegicus; short-term, duration: 28 days, oral, histopathology: nonneoplastic): 12 mg/kg-day
NOEC (Daphnia magna): 0.0595 mg/L
